As a reminder, the IC50 is the concentration at which inhibition is half-maximal. Low values mean greater potency, high ones weaker potency.

One assay deals with U-266. In words: Antiproliferative activity against human U-266 cells. Format: functional, cell-based.
In assay [1] the target is Signal transducer and activator of transcription 3 (Homo sapiens, UniProt P40763). The assay can be described thus: Inhibition of IL-6-induced STAT3 phosphorylation at Tyr705 in human HeLa cells by Western blot analysis. Format: cell-based. (A western blot detects proteins with antibodies after separation by electrophoresis.)
Chain of Signal transducer and activator of transcription 3 (P40763 whole entry): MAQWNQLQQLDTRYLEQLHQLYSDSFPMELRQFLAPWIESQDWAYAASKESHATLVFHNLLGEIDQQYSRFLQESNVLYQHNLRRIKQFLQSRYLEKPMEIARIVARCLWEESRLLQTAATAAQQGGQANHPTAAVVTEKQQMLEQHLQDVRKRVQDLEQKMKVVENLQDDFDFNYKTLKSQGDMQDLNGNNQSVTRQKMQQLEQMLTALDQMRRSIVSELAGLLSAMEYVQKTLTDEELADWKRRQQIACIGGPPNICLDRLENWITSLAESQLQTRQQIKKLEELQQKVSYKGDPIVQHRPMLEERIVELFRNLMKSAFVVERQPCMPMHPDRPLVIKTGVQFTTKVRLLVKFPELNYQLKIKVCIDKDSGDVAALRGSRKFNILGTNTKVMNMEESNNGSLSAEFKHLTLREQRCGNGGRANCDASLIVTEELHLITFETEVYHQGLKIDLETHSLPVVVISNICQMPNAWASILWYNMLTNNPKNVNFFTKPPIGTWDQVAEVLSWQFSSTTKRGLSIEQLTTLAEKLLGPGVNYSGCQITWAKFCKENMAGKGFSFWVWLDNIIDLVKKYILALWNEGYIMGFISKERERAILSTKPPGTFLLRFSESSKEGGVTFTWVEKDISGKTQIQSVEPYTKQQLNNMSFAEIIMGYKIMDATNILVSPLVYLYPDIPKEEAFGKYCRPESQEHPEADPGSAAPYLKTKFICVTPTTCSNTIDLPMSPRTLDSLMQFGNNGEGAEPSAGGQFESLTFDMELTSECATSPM
A further assay concerns HeLa. In words: Inhibition of cell growth in human HeLa cells by MTT assay. It counts as functional, cell-based. On the technique in general: Tetrazolium dyes change colour on reduction, which living cells bring about.
Another assay has as its system MDA-MB-231. The assay can be described thus: Inhibition of cell growth in human MDA-MB-231 cells by MTT assay. It counts as functional, cell-based.

For the molecule `C=C1C2=C(C(=O)N1OC)[C@H](O)[C@@](C)(O)[C@H](CCCCC)O2`, the IC50 with U-266 turned out to be 6.7 µM; in assay [1], 13.5 µM; with HeLa it was 8.8 µM; with MDA-MB-231 it was 29.7 µM. For the same molecule, in assay [1] (dose <= 100.0 µM), the inhibition entry is “Dose-dependent-effect”.
As to `O=[N+]([O-])c1ccc2c(c1)S(=O)(=O)C=C2`, the values for the IC50 (in assay [1]; in the assay on HeLa; with MDA-MB-231) were under 6.3 µM, 0.57 µM and 3.4 µM, respectively.
For `CCCCC[C@@H]1OC2=C(C(=O)N(OC)C2=O)[C@H](O)[C@@]1(C)O` the same measures were over 100 µM, over 50 µM and over 50 µM.
On the same counts, the results for `C=C1C2=C(C(=O)N1OC)[C@@H](O)[C@@](C)(O)[C@@H](CCCCC)O2` are 9.2 µM, 4.2 µM and 16.2 µM.
For the molecule `C=C1C2=C(C(=O)N1OC)[C@@H](O)[C@](C)(O)[C@@H](CCCCC)O2`, the IC50 came to 6.6 µM in assay [1], 4.2 µM with HeLa and 8.9 µM in the assay on MDA-MB-231.
On to `C=C1C2=C(C(=O)N1OC)[C@H](O)[C@@](C)(O)[C@@H](CCCCC)O2`, for which the IC50 in assay [1] turned out to be 7.3 µM; with HeLa, 6.1 µM; in the assay on MDA-MB-231, 19.8 µM.
On the same counts, the results for `C=C1C2=C(C(=O)N1OC)[C@@H](O)[C@@](C)(O)[C@H](CCCCC)O2` are 20.2 µM, 8.4 µM and 24.2 µM.
